# Laboratory results: ChEMBL document CHEMBL5131467, “Multivalent peptide dendrimers inhibit the fusion of viral-cellular membranes and the cellular NF-κB signaling pathway” (Eur J Med Chem, 2022)
# Active and inactive are the calls of the source. No cut-off for these calls is given here. Where a SMILES comes first, the peptide text is derived from it. Bridges are numbered along the chain shown (N, C = ends). Roman numbers before positions name the chains, in order. Side-chain parts run from the residue outwards. The star is where a group is joined. Fmoc = O=C(OCC1c2ccccc2-c2ccccc21)*
# Experiments:
# [1] = system: Mus musculus; assay: Antiviral activity against Kunming mouse infected with Influenza A virus (A/Puerto Rico/8/1934(H1N1)) assessed as recovery in body weight at 5 mg/kg, ip administered twice a day with a time interval of 12 hrs for 4 days measured from day 8 upto 15 days (Rvb =18.02 g); assay type: functional; conditions: time 15 day
# [2] = system: Influenza A virus; assay: Antiviral activity against Influenza A virus (A/Puerto Rico/8/1934(H1N1)) infected in MDCK cells assessed as reduction in viral nucleoprotein expression level at 2 ug/ml during infection measured after 24 hrs post infection by indirect immunofluorescence assay; assay type: functional, organism-based; conditions: dose 2.0 µg/ml
# [3] = system: RAW264.7; assay: Anti-inflammatory activity against mouse RAW264.7 cells assessed as reduction in LPS induced IL-6 level at 1 ug/ml by qRT-PCR analysis; assay type: functional, cell-based; conditions: dose 1.0 µg/ml
# [4] = system: Mus musculus; assay: Antiviral activity against Kunming mouse infected with Influenza A virus (A/Puerto Rico/8/1934(H1N1)) assessed as reduction in viral titer in lung homogenate at 1.25 mg/kg, ip administered twice a day for 3 days after 24 hrs of viral infection; assay type: functional, organism-based; conditions: time 3.0 day
# [5] = biological target: Hemagglutinin (Influenza A virus, UniProt B4URE7); assay: Binding affinity to Influenza A Puerto Rico/8/1934/H1N1 hemagglutin assessed as dissociation constant by surface plasmon resonance assay
# [6] = system: Influenza A virus; assay: Antiviral activity against Influenza A virus (A/Puerto Rico/8/1934(H1N1)) infected in MDCK cells assessed as reduction in virus induced cytopathic effect pre-treated with virus followed by cell infection for 1 hr by MTT assay; assay type: functional, organism-based
# [7] = Selectivity index, ratio of CC50 for MDCK cells to IC50 antiviral activity against Influenza A virus (A/Puerto Rico/8/1934(H1N1)) infected in MDCK cells assessed as reduction in virus induced cytopathic effect pre-treated with virus; assay type: toxicity, cell-based; conditions: dog, read-out: Selectivity Index
# [8] = system: Influenza A virus; assay: Antiviral activity against influenza A/Thailand/Kan353/2004 infected in MDCK cells assessed as inhibition of syncytium formation at 2.5 ug/ml incubated for 3 hrs by giemsa staining based assay relative to control; assay type: functional; design: scale not given: the % may be the effect or the level left; conditions: dose 2.5 µg/ml
# [9] = Tmax in Kunming mouse at 10 mg/kg, ip by HPLC analysis; assay type: ADME, organism-based; conditions: in vivo
# [10] = system: RAW264.7; assay: Anti-inflammatory activity against mouse RAW264.7 cells assessed as reduction in influenza A virus induced IL-6 level at 1 ug/ml by qRT- PCR; assay type: functional, cell-based; conditions: dose 1.0 µg/ml
# [11] = system: Influenza A virus; assay: Antiviral activity against Influenza A virus A/Aichi/2/68(H3N2) infected in MDCK cells incubated for 1 hr by MTT assay; assay type: functional, organism-based
# [12] = system: RAW264.7; assay: Anti-inflammatory activity against mouse RAW264.7 cells assessed as reduction in LPS induced TNF alpha level at 1 ug/ml by ELISA method; assay type: functional; conditions: dose 1 µg/ml
# [13] = system: Influenza A virus; assay: Antiviral activity against Influenza A virus (A/Puerto Rico/8/1934(H1N1)) infected in MDCK cells assessed as reduction in M1 mRNA level at 1 ug/ml measured after 24 hrs post infection by qRT-PCR analysis; assay type: functional, organism-based; conditions: dose 1.0 µg/ml
# [14] = system: Influenza A virus; assay: Antiviral activity against Influenza A virus (A/Puerto Rico/8/1934(H1N1)) infected in MDCK cells assessed as reduction in virus induced cytopathic effect during infection incubated for 1 hr by MTT assay; assay type: functional, organism-based
# Hemagglutinin, sequence (B4URE7 whole entry): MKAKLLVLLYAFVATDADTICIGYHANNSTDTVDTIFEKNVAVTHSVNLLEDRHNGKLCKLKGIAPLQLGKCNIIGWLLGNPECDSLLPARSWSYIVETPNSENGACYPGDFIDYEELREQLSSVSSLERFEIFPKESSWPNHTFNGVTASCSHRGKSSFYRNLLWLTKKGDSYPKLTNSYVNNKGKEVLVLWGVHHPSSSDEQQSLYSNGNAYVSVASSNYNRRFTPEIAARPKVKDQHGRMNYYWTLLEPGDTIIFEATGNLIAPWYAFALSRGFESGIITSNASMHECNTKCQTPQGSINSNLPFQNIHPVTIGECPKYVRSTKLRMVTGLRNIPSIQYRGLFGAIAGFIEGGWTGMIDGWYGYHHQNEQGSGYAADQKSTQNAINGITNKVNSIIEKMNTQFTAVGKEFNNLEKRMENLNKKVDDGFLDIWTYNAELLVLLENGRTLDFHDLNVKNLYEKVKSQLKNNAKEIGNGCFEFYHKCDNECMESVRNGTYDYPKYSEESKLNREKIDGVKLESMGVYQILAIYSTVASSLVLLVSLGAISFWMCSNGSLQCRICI
compound,measurement,setting,value
NCCCC[C@H](NC(=O)OCC1c2ccccc2-c2ccccc21)C(=O)N[C@@H](CCCCN)C(=O)N[C@@H](Cc1c[nH]c2ccccc12)C(=O)N[C@@H](CCCCN)C(=O)NCCCC[C@H](NC(=O)[C@H](CCCCN)NC(=O)[C@H](Cc1c[nH]c2ccccc12)NC(=O)[C@H](CCCCN)NC(=O)[C@H](CCCCN)NC(=O)OCC1c2ccccc2-c2ccccc21)C(=O)NCCCC[C@H](NC(=O)[C@H](CCCCNC(=O)[C@H](CCCCN)NC(=O)[C@H](Cc1c[nH]c2ccccc12)NC(=O)[C@H](CCCCN)NC(=O)[C@H](CCCCN)NC(=O)OCC1c2ccccc2-c2ccccc21)NC(=O)[C@H](CCCCN)NC(=O)[C@H](Cc1c[nH]c2ccccc12)NC(=O)[C@H](CCCCN)NC(=O)[C@H](CCCCN)NC(=O)OCC1c2ccccc2-c2ccccc21)C(=O)NCC(=O)O (I: Fmoc-KKWKK([Lys-Trp-Lys-Lys-Fmoc])KG-OH / II: Fmoc-KKWKK([Lys-Trp-Lys-Lys-Fmoc]); amide I:6-II:C),Activity,[1],26.99 g
same,Activity,[2],Active
same,Activity,[3],Active
same,Activity,[4],Active
same,Kd,[5],0.00665 nM
same,IC50,[6],280 nM
same,selectivity ratio,[7],150
same,Activity,[8],63%
same,Tmax,[9],1.03 h
same,Activity,[10],Active
same,IC50,[11],240 nM
same,Activity,[12],250.5 pg/mL
same,Activity,[13],Active
same,IC50,[14],310 nM
